Our source for the inhibition profile and Km values is article doi:10.1101/2022.01.18.476765v1, “How a Formate Dehydrogenase Responds to Oxygen: Unexpected O2 Insensitivity of an Enzyme Harboring Tungstopterin, Selenocysteine, and [4Fe-4S] Clusters” (biorxiv, 2022).

The target in assay [1] is T1, DvH-FDH2 (Nitratidesulfovibrio vulgaris, UniProt Q728X0).
T1 construct: gene fdnG-2; heterodimer, W-bis-pyranopterin, Sec, four [4Fe-4S]; Strep-tag II at C-terminus of large subunit, kept; periplasmic, Tat signal peptide on large subunit; homologous expression in DvH JW2127 (all fdh loci deleted), strain CSR21271; aerobic purification; with Formate dehydrogenase, beta (small) subunit, iron-sulfur
T1 sequence (Q728X0 36-1003): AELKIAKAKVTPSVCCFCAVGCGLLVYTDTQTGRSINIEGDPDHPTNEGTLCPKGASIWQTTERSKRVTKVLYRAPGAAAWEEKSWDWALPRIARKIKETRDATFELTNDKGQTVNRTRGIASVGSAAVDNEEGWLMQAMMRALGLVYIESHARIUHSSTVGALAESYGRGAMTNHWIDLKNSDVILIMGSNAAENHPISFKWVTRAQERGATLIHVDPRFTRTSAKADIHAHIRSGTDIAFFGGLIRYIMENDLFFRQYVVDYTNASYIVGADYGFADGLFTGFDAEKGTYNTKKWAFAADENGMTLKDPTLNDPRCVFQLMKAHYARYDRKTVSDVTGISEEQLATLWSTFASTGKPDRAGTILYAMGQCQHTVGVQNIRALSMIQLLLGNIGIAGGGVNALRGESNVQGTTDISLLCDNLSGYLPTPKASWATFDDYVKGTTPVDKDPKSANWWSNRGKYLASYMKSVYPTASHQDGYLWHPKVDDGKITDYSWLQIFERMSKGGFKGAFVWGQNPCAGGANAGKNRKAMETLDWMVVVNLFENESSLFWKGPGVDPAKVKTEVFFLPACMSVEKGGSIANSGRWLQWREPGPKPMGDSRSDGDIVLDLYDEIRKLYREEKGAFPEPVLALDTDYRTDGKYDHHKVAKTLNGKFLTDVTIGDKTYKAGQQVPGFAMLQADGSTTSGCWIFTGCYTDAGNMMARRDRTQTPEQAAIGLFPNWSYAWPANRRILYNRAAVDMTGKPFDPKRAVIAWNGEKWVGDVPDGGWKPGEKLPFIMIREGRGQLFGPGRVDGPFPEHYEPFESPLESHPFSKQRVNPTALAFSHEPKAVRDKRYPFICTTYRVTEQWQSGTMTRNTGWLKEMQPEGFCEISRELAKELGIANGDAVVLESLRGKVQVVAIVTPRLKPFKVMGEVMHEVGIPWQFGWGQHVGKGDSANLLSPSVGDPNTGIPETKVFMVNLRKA
T1 sequence (Q728X1 1-260 partner): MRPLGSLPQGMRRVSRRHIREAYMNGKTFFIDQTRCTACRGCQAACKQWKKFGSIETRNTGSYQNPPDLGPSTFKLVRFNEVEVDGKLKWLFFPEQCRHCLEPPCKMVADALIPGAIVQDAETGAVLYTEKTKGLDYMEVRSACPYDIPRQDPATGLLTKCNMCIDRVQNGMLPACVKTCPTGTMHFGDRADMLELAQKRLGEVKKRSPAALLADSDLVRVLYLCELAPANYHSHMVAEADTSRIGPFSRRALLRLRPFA
The experiment in a line: PES/DCPIP reduction at […] nm, inhibition of formate oxidation. The assay is classed as biochemical. The note with it: formate with PES/DCPIP; 50 mM Tris pH 8.0; with and without O2.

In assay [2] the target is T1, DvH-FDH2. The assay can be described thus: PES/DCPIP reduction at […] nm, global fit of full progress curves. The note with it: in air; 1 mM PES / 93 μM DCPIP; 50 mM Tris pH 8.0; Km calculated from kcat and kcat/Km. The assay is classed as biochemical.

For `O=[N+]([O-])O` [nitrate], the inhibition profile result against DvH-FDH2 [1] is given as “nitrate is far less effective”.
Consider `O=CO` [formate], for which, on DvH-FDH2 [2], the Km was 4.5 ± 0.4 µM.
